This is an account of results in EP4692094A1 (Beijing Konruns Pharmaceutical Co., Ltd., priority 2023, dated 2024).

A word on the half-life: it is the time needed for the level to fall by half in the phase considered. A low value points to rapid decline. The term AUC(0-inf) denotes the area under the concentration-time curve extrapolated to infinity. A higher AUC(0-inf) goes with high exposure. What is called Cmax is the maximum level reached in the sampled fluid or tissue. The term Tmax denotes the time from dosing to the highest level.

Like-named read-outs stand apart in the source and are kept apart here.

The nature of data set [1]: In-vivo pharmacokinetic study in beagle dogs. Also noted: species or system male beagle dogs. As to conditions: dog, plasma, po, intragastric administration. As for the experimental part:
1.1 Instrument: high-performance liquid chromatograph: SHIMADZU LC-30AD; mass spectrum: AB SCIEX mass spectrometer Triple Quad 5500; all measured data were calculated and processed using Microsoft Excel, and relevant pharmacokinetic parameters were calculated using WinNonlin software. […] Chromatographic column: Agilent EC-C18 2.7 µm (50 × 2.1 mm); column temperature: 40 °C; mobile phase A: water (0.1% formic acid); mobile phase B: acetonitrile; flow rate: 0.60 mL/min; gradient elution; elution gradient: 0.30 min: 5% B; 1.90 min: 95% B; 2.20 min: 95% B; 2.21 min: 5% B; 2.50 min: stop. Sample injection amount: 10 µL.
1.2 Animals: 3 male beagle dogs were used. The body weight range was 8-15 kg. The beagle dogs were fasted 12 h before administration and 4 h after administration, and given ad libitum access to water during the assay.
1.3 Vehicle: 0.5% HPMC (hydroxypropyl methylcellulose) + 0.4% Tween80 + 99.1% water.
After the intragastric administration, blood samples were taken at 0.25 h, 0.5 h, 1 h, 2 h, 4 h, 6 h, 8 h, 10 h, 12 h, 24 h, and 48 h. The blood collection mode is as follows: venipuncture was used, EDTA-K2 was used as an anticoagulation agent, the collected blood sample was transferred into a microcentrifuge tube containing the anticoagulation agent, and the tube was centrifuged at 4 °C and 2000 g for 10 min to separate the plasma. All plasma samples collected were stored at -75±15 °C until analysis.
1.4 Plasma sample pretreatment: 50 µL of the plasma sample was taken, and 200 µL of an internal standard solution prepared with acetonitrile was added for precipitation; subsequently, the sample was vortexed for 1 min and mixed homogenously; the precipitated sample was centrifuged at 4 °C and 3900 rpm for 15 min; the supernatant was pipetted, and water was added for 3-fold dilution; 10 µL of the sample was injected; and quantitative analysis was performed by adopting a liquid chromatography-mass spectrometry technology.
All measured data were collected and processed by the relevant software, and pharmacokinetic parameters were calculated using Winnonlin software. Pharmacokinetic parameters of some compounds in the examples in beagle dogs

The test system of data set [2] is human breast cancer cell line ZR-75-1. The data set can be described thus: Assay for cell growth inhibitory activity (3D hydrogel culture, CCK-8). Type of data set: cell-based. As to conditions: 96 h; for viability at 0.0001 µM: ZR-75-1, 0.1 nM, read-out: Cell survival rate at example drug concentration 0.1 nM; for viability at 0.001 µM: ZR-75-1, 1 nM, read-out: Cell survival rate at example drug concentration 1 nM; for viability at 0.01 µM: ZR-75-1, 10 nM, read-out: Cell survival rate at example drug concentration 10 nM; for viability at 0.1 µM: ZR-75-1, 100 nM, read-out: Cell survival rate at example drug concentration 100 nM; for viability at 1 µM: ZR-75-1, 1000 nM, read-out: Cell survival rate at example drug concentration 1000 nM. How it is done:
The human breast cancer cell line ZR-75-1 (1 × 10^^6 cells per cell culture dish with 100-mm diameter) was cultured in a 1640 culture medium, and 1% double antibiotics (streptomycin and penicillin), 10% fetal bovine serum (FBS), and 1% glutamine (Glumax) were added simultaneously. The cell culture dish was placed at 37 °C with 5% CO2 for 2 days for culture until the cell confluence reached 80%-90% to give cells in the logarithmic growth phase.
• 1) The example compounds were each dissolved in dimethylsulfoxide to give solutions at a concentration of 10 mmol/L, and the solutions were diluted to 250 µmol/L in 10-fold gradient for 5 concentrations, i.e., 0.2 nmol/L, 2 nmol/L, 20 nmol/L, 200 nmol/L, and 2000 nmol/L. • 2) Blank control wells were prepared by adding 0.1% dimethylsulfoxide to the cultured cells, and were used as high-reading control wells; cell-free 3D hydrogel was used as background wells. • 3) The cultured cells were separately added to the compounds in the examples at 0.2 nmol/L, 2 nmol/L, 20 nmol/L, 200 nmol/L, and 2000 nmol/L as test wells, with the same volumes as the original culture solutions.
• 1) The cells were collected, resuspended in a PBS balanced salt solution, and counted; and the cells were mixed with the 3D hydrogel stock solution and prepared into hydrogel cell suspensions with proper density. • 2) The 3D hydrogel cell suspension (5 × 10^^4 cells) was added to each well in 96-well cell culture plates with low surface adsorption, and the plates were incubated at 37 °C with 5% CO2 for 20 min. • 3) The complete culture medium containing the compound prepared in 1.2 with an equal volume to that of the cell suspension in step 2 was added to the 96-well cell culture plate. • 4) The cells were cultured at 37 °C in a 5% CO2 incubator for 96 h.
• 1) The complete culture medium in the upper layer above the hydrogel was pipetted from each well of the 96-well cell culture plate with a vacuum pump or a manual pipette with careful processing to avoid breaking the hydrogel lower layer. • 2) The complete culture medium containing the CCK-8 substrate with an equal volume to that of the original hydrogel was added to each well. • 3) The plate was cultured at 37 °C with 5% CO2 for 1 h. • 4) The 96-well cell culture plate was placed in a microplate reader, and the values of A450 and A630 were separately detected.
Data analysis: The relative inhibitory level was analyzed by using Excel software, and the survival rates of cells under different compound culture conditions were obtained; [formula]
High-reading control well: cells + dimethylsulfoxide; background well: cell-free hydrogel. Table 7. Cell proliferation inhibitory activity of some of example compounds

Setting [3] is: male, 1 mg/kg, read-out: AUC0-48h.

`COc1cc2c(cc1S(=O)(=O)Nc1noc3cc(Cn4cccn4)nc(OC)c13)OCC2` [Example 59, N-(6-((1H-Pyrazol-1-yl)methyl)-4-methoxyisoxazolo[4,5-c]pyridin-3-yl)-5-methoxy-2,3-dihydrobenzofuran-6-sulfonamide] showed a half-life in data set [1] (male, beagle, 1 mg/kg) of at most 15 h. For the same molecule, in data set [1] (male, 1 mg/kg), the AUC(0-inf) is 55900 ng·h/mL, the Cmax is 8380 ng/mL and the time of peak concentration (Tmax) was found to be 0.67 h. Further, in data set [1] (setting [3]), the AUC(0-t) is 55500 ng·h/mL.

As to `COc1nc(Cn2cccn2)cc2onc(NS(=O)(=O)c3cccc4c3OCCO4)c12` [Example 4, N-(6-((1H-Pyrazol-1-yl)methyl)-4-methoxyisoxazolo[4,5-c]pyridin-3-yl)-2,3-dihydrobenzo[b][1,4]dioxine-5-sulfonamide], in data set [2], the viability at 0.0001 µM was determined as 75%, the viability at 0.001 µM was found to be 61%, the viability at 0.01 µM stood at 41% and the viability at 0.1 µM is 37%. Also, in data set [2], the viability at 1 µM worked out at 29%.

On to `COc1ccc2c(c1S(=O)(=O)Nc1noc3cc(Cn4cccn4)nc(OC)c13)OCC2` [Example 9, N-(6-((1H-Pyrazol-1-yl)methyl)-4-methoxyisoxazolo[4,5-c]pyridin-3-yl)-6-methoxy-2,3-dihydrobenzofuran-7-sulfonamide], for which, in data set [2], the viability at 0.0001 µM came out at 63%, the viability at 0.001 µM worked out at 48%, the viability at 0.01 µM was 41% and the viability at 0.1 µM was determined as 38%. Moreover, the viability at 1 µM in data set [2] worked out at 32%. This molecule also displayed a half-life in data set [1] (male, beagle, 1 mg/kg) of at most 15 h. Besides, in data set [1] (male, 1 mg/kg), the AUC(0-inf) turned out to be 122000 ng·h/mL, the highest concentration (Cmax) stood at 9230 ng/mL and the Tmax turned out to be 1.33 h. Besides, in data set [1] (setting [3]), the AUC(0-t) came to 114000 ng·h/mL.

For the molecule `COc1cc2c(cc1S(=O)(=O)Nc1noc3cc(Cn4cccn4)nc(OC)c13)CCCO2` [Example 76, N-(6-((1H-Pyrazol-1-yl)methyl)-4-methoxyisoxazolo[4,5-c]pyridin-3-yl)-7-methoxy-3,4-dihydro-1H-benzopyran-6-sulfonamide], in data set [1] (1 mg/kg), the AUC(0-inf) amounted to 749000 ng·h/mL, the concentration peaked (Cmax) at 14000 ng/mL, the time of peak concentration (Tmax) was determined as 2 h and the half-life was 45.4 h. Also, the AUC(0-t) at 48 h in data set [1] (1 mg/kg, read-out: AUC0-48h) was determined as 225000 ng·h/mL.

In the case of `COc1ccc2ccoc2c1S(=O)(=O)Nc1noc2cc(Cn3cccn3)nc(OC)c12` [Example 10, N-(6-((1H-Pyrazol-1-yl)methyl)-4-methoxyisoxazolo[4,5-c]pyridin-3-yl)-6-methoxybenzofuran-7-sulfonamide], in data set [2], the viability at 0.0001 µM came out at 62%, the viability at 0.001 µM stood at 45%, the viability at 0.01 µM was determined as 39% and the viability at 0.1 µM was 33%. In addition, the viability at 1 µM in data set [2] stood at 29%. The half-life in data set [1] (male, beagle, 1 mg/kg) was at most 15 h. Besides, in data set [1] (male, 1 mg/kg), the AUC(0-inf) worked out at 47500 ng·h/mL, the Cmax came to 6250 ng/mL and the Tmax was found to be 0.83 h. The AUC(0-t) in data set [1] (setting [3]) is 46700 ng·h/mL.

Take `COc1nc(Cn2cccn2)cc2onc(NS(=O)(=O)c3cccc4ccoc34)c12` [Example 5, N-(6-((1H-Pyrazol-1-yl)methyl)-4-methoxyisoxazolo[4,5-c]pyridin-3-yl)benzofuran-7-sulfonamide]: in data set [2], the viability at 0.0001 µM came to 80%, the viability at 0.001 µM amounted to 85%, the viability at 0.01 µM came out at 69% and the viability at 0.1 µM stood at 54%. Also, the viability at 1 µM in data set [2] amounted to 35%.

On to `COc1cc2c(cc1S(=O)(=O)Nc1noc3cc(Cn4cccn4)nc(OC)c13)CCCC2` [Example 2, N-(6-((1H-Pyrazol-1-yl)methyl)-4-methoxyisoxazolo[4,5-c]pyridin-3-yl)-3-methoxy-5,6,7,8-tetrahydronaphthalene-2-sulfonamide], for which, in data set [2], the viability at 0.0001 µM was 63%, the viability at 0.001 µM is 51%, the viability at 0.01 µM stood at 43% and the viability at 0.1 µM stood at 43%. Further, in data set [2], the viability at 1 µM was 40%. The molecule further showed a half-life in data set [1] (male, beagle, 0.6 mg/kg) of 173 h. Also, in data set [1] (male, 0.6 mg/kg), the AUC(0-inf) is 379000 ng·h/mL, the peak concentration (Cmax) is 1800 ng/mL and the time of peak concentration (Tmax) worked out at 4 h. Also, in data set [1] (male, 0.6 mg/kg, read-out: AUC0-48h), the AUC(0-t) amounted to 66500 ng·h/mL.
